Reference: patent US20100137449A1, “SUBSTITUTED 1,3-CYCLOPENTADIONE MULTI-TARGET PROTEIN KINASE MODULATORS OF CANCER, ANGIOGENESIS AND THE INFLAMMATORY PATHWAYS ASSOCIATED THEREWITH” (METAPROTEOMICS, LLC, priority 2007, published 2010)

Legend:
Experiment in all cases: KinaseProfiler Assay
DRAK1(h) = molecular target: T1, DRAK1(h) (Homo sapiens, UniProt Q9UEE5)
T1 sequence (Q9UEE5 1-414): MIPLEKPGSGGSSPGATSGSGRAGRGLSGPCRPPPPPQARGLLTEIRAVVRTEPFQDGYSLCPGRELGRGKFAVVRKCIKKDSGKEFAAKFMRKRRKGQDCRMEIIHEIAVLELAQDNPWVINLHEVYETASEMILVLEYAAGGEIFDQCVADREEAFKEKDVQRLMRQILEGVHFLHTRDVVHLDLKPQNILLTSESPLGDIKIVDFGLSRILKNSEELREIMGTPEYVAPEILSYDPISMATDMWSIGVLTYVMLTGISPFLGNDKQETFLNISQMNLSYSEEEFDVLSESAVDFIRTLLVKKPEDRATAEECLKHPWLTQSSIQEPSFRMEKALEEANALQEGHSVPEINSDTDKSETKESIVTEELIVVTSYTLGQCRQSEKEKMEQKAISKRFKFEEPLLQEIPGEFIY

IR(h) = IR(h) (Homo sapiens, UniProt P06213)
Chain of IR(h) (P06213 28-1382): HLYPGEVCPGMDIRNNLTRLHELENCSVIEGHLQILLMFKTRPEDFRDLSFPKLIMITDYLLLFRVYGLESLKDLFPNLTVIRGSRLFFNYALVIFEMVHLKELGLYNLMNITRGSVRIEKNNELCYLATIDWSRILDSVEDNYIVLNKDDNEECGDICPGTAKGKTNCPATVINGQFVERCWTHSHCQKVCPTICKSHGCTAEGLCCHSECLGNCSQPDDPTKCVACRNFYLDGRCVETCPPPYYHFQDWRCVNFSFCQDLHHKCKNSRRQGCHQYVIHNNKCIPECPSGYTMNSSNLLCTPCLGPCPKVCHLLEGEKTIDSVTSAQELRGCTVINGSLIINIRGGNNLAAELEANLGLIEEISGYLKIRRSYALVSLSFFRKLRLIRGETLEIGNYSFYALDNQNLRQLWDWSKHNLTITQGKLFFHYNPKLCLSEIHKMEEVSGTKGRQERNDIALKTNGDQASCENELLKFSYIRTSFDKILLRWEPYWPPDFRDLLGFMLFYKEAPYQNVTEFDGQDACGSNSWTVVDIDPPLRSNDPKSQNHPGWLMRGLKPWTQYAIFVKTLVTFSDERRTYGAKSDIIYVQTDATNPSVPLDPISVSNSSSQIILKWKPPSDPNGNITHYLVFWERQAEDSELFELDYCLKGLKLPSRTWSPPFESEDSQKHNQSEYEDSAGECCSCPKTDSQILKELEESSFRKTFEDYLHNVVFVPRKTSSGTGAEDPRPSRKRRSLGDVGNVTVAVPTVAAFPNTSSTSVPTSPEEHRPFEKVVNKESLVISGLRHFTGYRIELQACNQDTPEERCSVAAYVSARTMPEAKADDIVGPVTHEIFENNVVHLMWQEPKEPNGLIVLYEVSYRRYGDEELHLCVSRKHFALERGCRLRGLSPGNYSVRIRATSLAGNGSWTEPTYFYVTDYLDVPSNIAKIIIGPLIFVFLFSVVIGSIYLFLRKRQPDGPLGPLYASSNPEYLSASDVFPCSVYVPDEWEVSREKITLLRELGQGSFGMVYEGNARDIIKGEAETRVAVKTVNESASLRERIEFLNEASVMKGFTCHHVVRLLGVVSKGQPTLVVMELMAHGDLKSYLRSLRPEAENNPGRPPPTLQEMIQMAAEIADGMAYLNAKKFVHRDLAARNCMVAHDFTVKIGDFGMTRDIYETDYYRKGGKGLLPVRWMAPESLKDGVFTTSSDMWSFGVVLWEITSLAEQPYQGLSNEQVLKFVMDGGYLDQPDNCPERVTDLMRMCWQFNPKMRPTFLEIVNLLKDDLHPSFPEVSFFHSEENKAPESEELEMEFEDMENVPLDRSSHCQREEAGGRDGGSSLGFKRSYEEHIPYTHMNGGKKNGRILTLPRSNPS

PAK3(h) = PAK3(h) (Homo sapiens, UniProt O75914)
Chain of PAK3(h) (O75914 whole entry): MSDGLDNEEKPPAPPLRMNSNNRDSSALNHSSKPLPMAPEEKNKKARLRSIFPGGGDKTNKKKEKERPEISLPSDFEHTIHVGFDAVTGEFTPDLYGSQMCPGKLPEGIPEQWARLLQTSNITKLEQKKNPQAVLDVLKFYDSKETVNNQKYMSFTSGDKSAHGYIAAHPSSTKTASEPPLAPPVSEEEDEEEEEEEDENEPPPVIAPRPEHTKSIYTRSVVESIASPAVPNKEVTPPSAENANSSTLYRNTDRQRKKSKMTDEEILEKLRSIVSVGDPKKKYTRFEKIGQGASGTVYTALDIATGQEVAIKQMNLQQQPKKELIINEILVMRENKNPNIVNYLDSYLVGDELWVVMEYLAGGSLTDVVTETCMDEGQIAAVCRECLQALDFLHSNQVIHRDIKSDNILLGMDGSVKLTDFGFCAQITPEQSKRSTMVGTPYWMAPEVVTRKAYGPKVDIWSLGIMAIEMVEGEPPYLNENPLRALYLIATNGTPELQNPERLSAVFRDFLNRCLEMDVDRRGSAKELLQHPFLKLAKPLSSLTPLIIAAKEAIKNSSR

CDK3/cyclinE(h) = CDK3/cyclinE(h) (Homo sapiens, UniProt Q00526)
cKit(V654A)(h) = cKit(V654A)(h) (Homo sapiens, UniProt P10721, V654A)
Chain of cKit(V654A)(h) (P10721 26-976 V654A): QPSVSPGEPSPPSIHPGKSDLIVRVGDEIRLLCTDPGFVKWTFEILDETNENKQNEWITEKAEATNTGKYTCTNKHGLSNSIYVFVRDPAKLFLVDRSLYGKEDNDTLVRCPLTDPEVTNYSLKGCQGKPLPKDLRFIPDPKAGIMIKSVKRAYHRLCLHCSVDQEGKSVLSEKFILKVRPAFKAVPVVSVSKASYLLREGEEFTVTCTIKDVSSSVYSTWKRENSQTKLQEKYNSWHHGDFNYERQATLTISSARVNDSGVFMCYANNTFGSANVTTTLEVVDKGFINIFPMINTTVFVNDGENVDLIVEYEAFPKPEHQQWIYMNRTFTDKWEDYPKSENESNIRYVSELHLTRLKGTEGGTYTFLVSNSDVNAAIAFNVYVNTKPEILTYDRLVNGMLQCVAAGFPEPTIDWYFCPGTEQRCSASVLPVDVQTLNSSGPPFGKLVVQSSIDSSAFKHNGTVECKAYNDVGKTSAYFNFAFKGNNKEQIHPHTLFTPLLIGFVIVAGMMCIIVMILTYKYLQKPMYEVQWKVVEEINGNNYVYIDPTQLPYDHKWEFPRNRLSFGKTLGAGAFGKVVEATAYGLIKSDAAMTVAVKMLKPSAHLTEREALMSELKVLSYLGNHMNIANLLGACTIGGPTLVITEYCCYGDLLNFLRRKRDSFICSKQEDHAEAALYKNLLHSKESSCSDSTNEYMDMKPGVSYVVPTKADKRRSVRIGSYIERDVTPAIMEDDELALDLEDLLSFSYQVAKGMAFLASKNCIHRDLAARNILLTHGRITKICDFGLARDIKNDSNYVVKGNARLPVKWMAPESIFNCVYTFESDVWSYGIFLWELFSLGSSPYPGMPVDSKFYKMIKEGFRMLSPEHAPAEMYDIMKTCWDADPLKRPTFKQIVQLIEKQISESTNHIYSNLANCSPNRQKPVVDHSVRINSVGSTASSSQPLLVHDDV

EGFR(L858R)(h) = EGFR(L858R)(h) (Homo sapiens, UniProt P00533, L858R)
PKBβ(h) = PKBβ(h) (Homo sapiens, UniProt P31751)
Chain of PKBβ(h) (P31751 whole entry): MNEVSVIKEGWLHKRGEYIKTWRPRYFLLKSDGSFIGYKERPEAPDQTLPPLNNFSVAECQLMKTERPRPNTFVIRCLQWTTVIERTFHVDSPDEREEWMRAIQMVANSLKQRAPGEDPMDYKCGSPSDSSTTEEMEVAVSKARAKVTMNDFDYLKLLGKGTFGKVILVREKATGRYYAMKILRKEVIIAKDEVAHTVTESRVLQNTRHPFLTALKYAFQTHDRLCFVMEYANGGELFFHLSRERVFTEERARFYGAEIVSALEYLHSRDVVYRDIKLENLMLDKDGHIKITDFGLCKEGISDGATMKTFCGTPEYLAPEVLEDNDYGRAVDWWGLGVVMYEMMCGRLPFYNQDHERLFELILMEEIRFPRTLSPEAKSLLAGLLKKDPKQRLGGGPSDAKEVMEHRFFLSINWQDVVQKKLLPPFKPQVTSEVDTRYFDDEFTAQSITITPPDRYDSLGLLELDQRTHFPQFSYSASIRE

PKCθ(h) = PKCθ(h) (Homo sapiens, UniProt Q04759)
Chain of PKCθ(h) (Q04759 whole entry): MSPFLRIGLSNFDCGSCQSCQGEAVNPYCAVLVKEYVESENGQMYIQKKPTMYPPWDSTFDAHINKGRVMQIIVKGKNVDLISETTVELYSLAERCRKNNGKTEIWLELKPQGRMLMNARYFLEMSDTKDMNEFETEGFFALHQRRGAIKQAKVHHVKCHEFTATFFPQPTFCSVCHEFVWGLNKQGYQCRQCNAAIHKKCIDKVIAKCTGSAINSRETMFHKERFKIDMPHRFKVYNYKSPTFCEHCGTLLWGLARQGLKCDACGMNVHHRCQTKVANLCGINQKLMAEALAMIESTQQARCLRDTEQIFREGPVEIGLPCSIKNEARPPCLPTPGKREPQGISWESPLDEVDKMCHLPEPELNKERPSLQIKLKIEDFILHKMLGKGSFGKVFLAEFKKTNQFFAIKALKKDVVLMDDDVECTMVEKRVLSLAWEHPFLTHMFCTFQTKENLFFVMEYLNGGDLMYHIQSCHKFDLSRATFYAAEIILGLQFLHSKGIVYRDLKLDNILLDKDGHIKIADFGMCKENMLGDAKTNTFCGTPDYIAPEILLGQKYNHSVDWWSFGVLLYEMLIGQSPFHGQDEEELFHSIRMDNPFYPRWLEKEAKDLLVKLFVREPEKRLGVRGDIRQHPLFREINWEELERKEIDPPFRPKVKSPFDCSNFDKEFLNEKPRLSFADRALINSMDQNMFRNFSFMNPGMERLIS

Tie2(R849W)(h) = Tie2(R849W)(h) (Homo sapiens, UniProt Q02763, R849W)
Blk(m) = Blk(m) (Mus musculus, UniProt P16277)
Chain of Blk(m) (P16277 whole entry): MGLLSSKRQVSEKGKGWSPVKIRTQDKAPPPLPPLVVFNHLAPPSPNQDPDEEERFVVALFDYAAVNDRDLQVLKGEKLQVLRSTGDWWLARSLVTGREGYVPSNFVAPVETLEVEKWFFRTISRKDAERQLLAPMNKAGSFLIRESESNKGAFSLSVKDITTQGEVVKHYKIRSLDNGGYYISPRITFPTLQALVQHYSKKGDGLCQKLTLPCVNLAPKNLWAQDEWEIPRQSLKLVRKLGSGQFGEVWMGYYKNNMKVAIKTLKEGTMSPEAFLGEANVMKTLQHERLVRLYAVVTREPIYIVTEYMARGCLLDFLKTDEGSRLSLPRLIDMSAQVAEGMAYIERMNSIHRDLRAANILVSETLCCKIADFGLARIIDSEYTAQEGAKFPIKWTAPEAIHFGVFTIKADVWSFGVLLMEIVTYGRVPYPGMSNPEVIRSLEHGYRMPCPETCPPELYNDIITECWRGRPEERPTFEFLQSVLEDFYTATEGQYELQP

PTK5(h) = PTK5(h) (Homo sapiens, UniProt P42685)
Chain of PTK5(h) (P42685 whole entry): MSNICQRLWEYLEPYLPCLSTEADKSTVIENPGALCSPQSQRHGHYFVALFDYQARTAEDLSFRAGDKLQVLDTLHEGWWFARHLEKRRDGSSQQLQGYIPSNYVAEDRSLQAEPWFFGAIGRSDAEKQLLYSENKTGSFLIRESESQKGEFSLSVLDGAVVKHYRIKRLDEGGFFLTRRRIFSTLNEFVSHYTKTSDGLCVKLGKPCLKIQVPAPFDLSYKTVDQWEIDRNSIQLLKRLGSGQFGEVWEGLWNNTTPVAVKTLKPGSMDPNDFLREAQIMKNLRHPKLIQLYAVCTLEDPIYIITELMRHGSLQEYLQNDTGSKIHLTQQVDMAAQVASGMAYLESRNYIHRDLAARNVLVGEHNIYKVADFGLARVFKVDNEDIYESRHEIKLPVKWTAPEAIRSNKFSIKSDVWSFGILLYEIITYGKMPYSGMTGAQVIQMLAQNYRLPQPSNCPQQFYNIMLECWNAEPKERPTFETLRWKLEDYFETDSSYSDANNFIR

Abl(T315I)(h) = Abl(T315I)(h) (Homo sapiens, UniProt P00519, T315I)
CDK2/cyclinE(h) = CDK2/cyclinE(h) (Homo sapiens, UniProt P24941)

Structure (SMILES): CC(C)CCC(=O)[C@]1(O)C(O)=C(C(=O)C(C)C)C(=O)[C@H]1CCC(C)C [TH2, tetrahydroiso-cohumulone]
- kinase inhibition (DRAK1(h); 1 μg/ml): 103% of control
- kinase inhibition (DRAK1(h); 5 μg/ml): 106% of control
- kinase inhibition (DRAK1(h); 25 μg/ml): 107% of control
- kinase inhibition (DRAK1(h); 50 μg/ml): 93% of control
- kinase inhibition (DRAK1(h); 100 μg/ml): 79% of control
- kinase inhibition (IR(h); 1 μg/ml): 96% of control
- kinase inhibition (IR(h); 5 μg/ml): 100% of control
- kinase inhibition (IR(h); 25 μg/ml): 80% of control
- kinase inhibition (IR(h); 50 μg/ml): 75% of control
- kinase inhibition (IR(h); 100 μg/ml): 79% of control
- kinase inhibition (PAK3(h); 1 μg/ml): 103% of control
- kinase inhibition (PAK3(h); 5 μg/ml): 102% of control
- kinase inhibition (PAK3(h); 25 μg/ml): 49% of control
- kinase inhibition (PAK3(h); 50 μg/ml): 47% of control
- kinase inhibition (PAK3(h); 100 μg/ml): 40% of control
- kinase inhibition (CDK3/cyclinE(h); 1 μg/ml): 102% of control
- kinase inhibition (CDK3/cyclinE(h); 5 μg/ml): 104% of control
- kinase inhibition (CDK3/cyclinE(h); 25 μg/ml): 120% of control
- kinase inhibition (CDK3/cyclinE(h); 50 μg/ml): 103% of control
- kinase inhibition (CDK3/cyclinE(h); 100 μg/ml): 84% of control
- kinase inhibition (cKit(V654A)(h); 1 μg/ml): 100% of control
- kinase inhibition (cKit(V654A)(h); 5 μg/ml): 101% of control
- kinase inhibition (cKit(V654A)(h); 25 μg/ml): 112% of control
- kinase inhibition (cKit(V654A)(h); 50 μg/ml): 88% of control
- kinase inhibition (cKit(V654A)(h); 100 μg/ml): 75% of control
- kinase inhibition (EGFR(L858R)(h); 1 μg/ml): 109% of control
- kinase inhibition (EGFR(L858R)(h); 5 μg/ml): 117% of control
- kinase inhibition (EGFR(L858R)(h); 25 μg/ml): 104% of control
- kinase inhibition (EGFR(L858R)(h); 50 μg/ml): 90% of control
- kinase inhibition (EGFR(L858R)(h); 100 μg/ml): 70% of control
- kinase inhibition (PKBβ(h); 1 μg/ml): 104% of control
- kinase inhibition (PKBβ(h); 5 μg/ml): 97% of control
- kinase inhibition (PKBβ(h); 25 μg/ml): 68% of control
- kinase inhibition (PKBβ(h); 50 μg/ml): 43% of control
- kinase inhibition (PKBβ(h); 100 μg/ml): 31% of control
- kinase inhibition (PKCθ(h); 1 μg/ml): 101% of control
- kinase inhibition (PKCθ(h); 5 μg/ml): 84% of control
- kinase inhibition (PKCθ(h); 25 μg/ml): 116% of control
- kinase inhibition (PKCθ(h); 50 μg/ml): 96% of control
- kinase inhibition (PKCθ(h); 100 μg/ml): 83% of control
- kinase inhibition (Tie2(R849W)(h); 1 μg/ml): 91% of control
- kinase inhibition (Tie2(R849W)(h); 5 μg/ml): 53% of control
- kinase inhibition (Tie2(R849W)(h); 25 μg/ml): 48% of control
- kinase inhibition (Tie2(R849W)(h); 50 μg/ml): 43% of control
- kinase inhibition (Tie2(R849W)(h); 100 μg/ml): 46% of control
- kinase inhibition (Blk(m); 1 μg/ml): 108% of control
- kinase inhibition (Blk(m); 5 μg/ml): 115% of control
- kinase inhibition (Blk(m); 25 μg/ml): 96% of control
- kinase inhibition (Blk(m); 50 μg/ml): 72% of control
- kinase inhibition (Blk(m); 100 μg/ml): 53% of control
- kinase inhibition (PTK5(h); 1 μg/ml): 116% of control
- kinase inhibition (PTK5(h); 5 μg/ml): 105% of control
- kinase inhibition (PTK5(h); 25 μg/ml): 113% of control
- kinase inhibition (PTK5(h); 50 μg/ml): 112% of control
- kinase inhibition (PTK5(h); 100 μg/ml): 116% of control
- kinase inhibition (Abl(T315I)(h); 1 μg/ml): 102% of control
- kinase inhibition (Abl(T315I)(h); 5 μg/ml): 98% of control
- kinase inhibition (Abl(T315I)(h); 25 μg/ml): 79% of control
- kinase inhibition (Abl(T315I)(h); 50 μg/ml): 68% of control
- kinase inhibition (Abl(T315I)(h); 100 μg/ml): 58% of control
- kinase inhibition (CDK2/cyclinE(h); 1 μg/ml): 95% of control
- kinase inhibition (CDK2/cyclinE(h); 5 μg/ml): 101% of control
- kinase inhibition (CDK2/cyclinE(h); 25 μg/ml): 93% of control
- kinase inhibition (CDK2/cyclinE(h); 50 μg/ml): 71% of control
- kinase inhibition (CDK2/cyclinE(h); 100 μg/ml): 54% of control
